Results: patent US9295732B2, “Conjugated TLR7 and/or TLR8 and TLR2 polycationic agonists” (CAYLA, priority 2013, dated 2016)

What was measured:
[1] = tested on: endogenous TLR2 and TLR7 in RAW-Blue™ Cells; test: RAW-Blue Cells NF-κB/AP-1 SEAP reporter assay; format: cell-based, mouse; conditions: 24 hours, OD at 655 nm, FIG. 4
Protocol: (§1) Cell-based assays were carried out using TLR7 and TLR2 reporter cell lines (InvivoGen). The reporter cell lines are engineered HEK293 cells, a human embryonic kidney cell line (ATCC, CRL-1573) that stably express either murine TLR7 (HEK-Blue™ mTLR7) or human TLR7 (HEK-Blue™ hTLR7) or human TLR2 (HEK-Blue™ hTLR2) with an NF-κB-inducible secreted embryonic alkaline phosphatase (SEAP) as the reporter gene. The SEAP reporter gene is under the control of the NF-κB and AP-1-inducible promoter, which, upon treatment with a corresponding TLR ligand and activation of NF-κB and AP-1, induces the production of SEAP. Detection of SEAP is measured following culturing cells in HEK-Blue™ Detection media (InvivoGen). HEK-Blue™ Detection contains a SEAP substrate that when hydrolysed by SEAP produces a colorimetric change allowing for detection of SEAP as the protein is secreted. […] These assays were carried out using RAW-Blue™ Cells (InvivoGen), derived from RAW 264.7 mouse leukemic monocyte macrophage cell line (ATCC, CRL 2278) stably overexpressing a NF-B/AP-1 inducible SEAP reporter constructs.
(§2) To perform the assay, cells were seeded on 96 well microliter plates at 50,000 or 100,000 cells per well for HEK-Blue™ Cells and RAW-Blue™ Cells respectively, and cultured at 37° C. in the presence of the conjugated compounds The TLR7-TLR2 polyamine molecules were prepared as follows: First, stock solutions of the conjugated compounds of the invention were prepared in ethanol or water to a concentration of 10 mg/ml.
(§3) The working dilutions of the conjugated TLR7-TLR2 polyamine agonists made up in water or PBS were directly added to the reporter cell lines at a final concentration ranging from 10 μg/mL to 10 pg/ml and incubated at 37° C. for 24 hours. After 24 hours of incubation, the effect on reporter gene activity was determined by reading the OD at 655 nm using iMark™ Microplate Reader (BIO-RAD).

murine TLR7 = biological target: T1, murine TLR7 (Mus musculus, UniProt P58681); test: HEK-Blue mTLR7 NF-κB/AP-1 SEAP reporter assay; format: cell-based; conditions: HEK-Blue mTLR7 cells, 10 μg/mL to 10 pg/ml, 24 hours, OD at 655 nm, FIG. 2
T1 construct: host or cells: HEK293 (HEK-Blue™ mTLR7)
T1 sequence (P58681 27-1050): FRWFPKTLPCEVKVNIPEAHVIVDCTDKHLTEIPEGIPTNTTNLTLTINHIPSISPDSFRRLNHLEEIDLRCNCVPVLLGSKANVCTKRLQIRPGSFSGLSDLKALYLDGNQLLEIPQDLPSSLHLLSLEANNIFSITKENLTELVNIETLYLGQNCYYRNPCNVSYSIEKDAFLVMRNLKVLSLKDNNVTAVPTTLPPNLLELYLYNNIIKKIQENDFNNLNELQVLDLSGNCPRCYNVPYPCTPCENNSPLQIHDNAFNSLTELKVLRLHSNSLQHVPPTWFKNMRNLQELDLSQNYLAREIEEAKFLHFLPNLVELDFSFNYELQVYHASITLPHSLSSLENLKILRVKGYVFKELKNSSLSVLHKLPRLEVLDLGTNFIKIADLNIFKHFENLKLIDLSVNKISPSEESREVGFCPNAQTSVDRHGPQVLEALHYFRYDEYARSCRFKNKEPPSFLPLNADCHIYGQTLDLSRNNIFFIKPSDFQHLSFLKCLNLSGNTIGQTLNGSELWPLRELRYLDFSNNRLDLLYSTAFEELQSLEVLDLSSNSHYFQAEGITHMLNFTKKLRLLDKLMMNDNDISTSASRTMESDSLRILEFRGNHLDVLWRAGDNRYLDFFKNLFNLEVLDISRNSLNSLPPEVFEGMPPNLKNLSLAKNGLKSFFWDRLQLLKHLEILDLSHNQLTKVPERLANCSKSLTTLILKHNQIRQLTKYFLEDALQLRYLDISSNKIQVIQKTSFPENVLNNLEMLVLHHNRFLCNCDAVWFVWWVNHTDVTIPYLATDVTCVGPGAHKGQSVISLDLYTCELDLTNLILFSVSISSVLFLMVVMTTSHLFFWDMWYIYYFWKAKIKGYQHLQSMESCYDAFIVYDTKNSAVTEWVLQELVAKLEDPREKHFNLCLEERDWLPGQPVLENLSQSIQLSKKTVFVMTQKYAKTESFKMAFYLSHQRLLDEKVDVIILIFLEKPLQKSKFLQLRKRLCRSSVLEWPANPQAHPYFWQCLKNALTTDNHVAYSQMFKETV
Protocol: as §1, §2, §3

human TLR2 = biological target: T2, human TLR2 (Homo sapiens, UniProt O60603); test: HEK-Blue hTLR2 NF-κB/AP-1 SEAP reporter assay; format: cell-based; conditions: HEK-Blue hTLR2 cells, 10 μg/mL to 10 pg/ml, 24 hours, OD at 655 nm, FIG. 3
T2 construct: host or cells: HEK293 (HEK-Blue™ hTLR2)
T2 sequence (O60603 21-784): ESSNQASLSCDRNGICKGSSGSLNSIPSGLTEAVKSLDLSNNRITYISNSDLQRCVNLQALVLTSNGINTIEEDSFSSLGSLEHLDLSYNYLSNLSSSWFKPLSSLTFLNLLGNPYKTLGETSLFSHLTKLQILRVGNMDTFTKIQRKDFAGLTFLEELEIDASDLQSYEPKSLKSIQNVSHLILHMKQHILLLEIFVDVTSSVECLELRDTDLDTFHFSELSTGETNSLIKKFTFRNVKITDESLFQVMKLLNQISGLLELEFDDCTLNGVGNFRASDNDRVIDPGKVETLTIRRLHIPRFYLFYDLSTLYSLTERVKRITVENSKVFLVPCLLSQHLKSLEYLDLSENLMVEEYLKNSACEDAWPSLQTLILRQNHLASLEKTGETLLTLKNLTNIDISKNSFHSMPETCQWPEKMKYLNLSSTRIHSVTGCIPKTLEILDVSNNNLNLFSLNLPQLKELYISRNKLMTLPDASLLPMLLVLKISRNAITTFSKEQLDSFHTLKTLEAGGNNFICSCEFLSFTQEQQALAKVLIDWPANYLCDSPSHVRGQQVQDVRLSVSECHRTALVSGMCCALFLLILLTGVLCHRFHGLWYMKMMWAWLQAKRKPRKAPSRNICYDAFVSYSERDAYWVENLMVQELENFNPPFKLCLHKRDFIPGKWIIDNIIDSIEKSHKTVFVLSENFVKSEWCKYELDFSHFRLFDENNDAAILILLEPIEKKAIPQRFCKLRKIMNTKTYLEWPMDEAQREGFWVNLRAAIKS
Protocol: as §1, §2, §3

plasmid DNA (pDNA) = test: Gel shift (mobility shift) assay of pDNA complexation; format: binding; conditions: pDNA:molecule ratio 3:24 (w:w), 0.8% agarose gel, compared to pDNA alone
Protocol: Then, 10 μl of pDNA:TLR7-TLR2 polyamine molecule complexes and 2 μl of charge buffer were mixed and loaded into wells of a 0.8% agarose gel. Samples were migrated through the gel in TAE buffer under 135 voltage for 21 mins and the migration of the pDNA was visualized following ethidium bromide staining under UV light. The ability of TLR7-TLR2 polyamine molecules to complex/associate with the pDNA was identified by partial or complete retardation of the pDNA migration toward the anode in the gel compared to pDNA alone. […] Ethidium bromide intercalation of pDNA in complex with molecules allowed visualization of complexed pDNA as a smear in the wells of the gel.

human TLR7 = biological target: T3, human TLR7 (Homo sapiens, UniProt Q9NYK1); test: HEK-Blue hTLR7 NF-κB/AP-1 SEAP reporter assay; format: cell-based; conditions: HEK-Blue hTLR7 cells, 10 μg/mL to 10 pg/ml, 24 hours, OD at 655 nm, FIG. 1
T3 construct: host or cells: HEK293 (HEK-Blue™ hTLR7)
T3 sequence (Q9NYK1 27-1049): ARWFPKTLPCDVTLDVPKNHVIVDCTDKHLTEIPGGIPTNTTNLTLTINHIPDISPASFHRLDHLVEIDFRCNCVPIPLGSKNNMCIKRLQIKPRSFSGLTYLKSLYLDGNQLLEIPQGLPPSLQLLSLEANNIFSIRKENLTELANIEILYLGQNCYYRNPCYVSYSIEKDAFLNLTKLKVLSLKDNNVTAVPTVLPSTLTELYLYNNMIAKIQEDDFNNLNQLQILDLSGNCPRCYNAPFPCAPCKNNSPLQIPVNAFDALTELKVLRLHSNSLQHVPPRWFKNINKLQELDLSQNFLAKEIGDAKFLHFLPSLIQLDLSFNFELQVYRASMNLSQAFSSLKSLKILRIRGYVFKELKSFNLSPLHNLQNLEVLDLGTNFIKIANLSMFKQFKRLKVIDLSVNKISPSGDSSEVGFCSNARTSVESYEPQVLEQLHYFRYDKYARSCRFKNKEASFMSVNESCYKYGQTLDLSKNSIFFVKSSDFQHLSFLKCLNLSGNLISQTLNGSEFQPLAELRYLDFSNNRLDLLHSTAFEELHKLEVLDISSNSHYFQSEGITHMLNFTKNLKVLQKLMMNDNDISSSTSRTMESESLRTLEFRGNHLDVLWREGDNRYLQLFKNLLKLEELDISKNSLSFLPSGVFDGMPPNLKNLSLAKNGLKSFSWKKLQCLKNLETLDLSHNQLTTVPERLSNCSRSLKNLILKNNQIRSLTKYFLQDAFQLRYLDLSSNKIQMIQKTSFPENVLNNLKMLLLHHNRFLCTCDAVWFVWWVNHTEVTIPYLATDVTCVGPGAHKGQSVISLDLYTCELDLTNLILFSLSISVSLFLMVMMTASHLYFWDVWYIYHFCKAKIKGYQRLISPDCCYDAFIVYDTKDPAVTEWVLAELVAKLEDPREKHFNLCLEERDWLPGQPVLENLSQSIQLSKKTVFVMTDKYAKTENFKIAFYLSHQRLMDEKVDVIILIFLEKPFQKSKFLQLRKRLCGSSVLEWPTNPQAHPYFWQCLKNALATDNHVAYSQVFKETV
Protocol: as §1, §2, §3

Row | SMILES | ability to activate endogenous TLR2 and TLR7 in RAW-Blue Cells [1] | ability to activate mTLR7 (murine TLR7) | ability to activate hTLR2 (human TLR2) | ability to complex pDNA (retardation of pDNA migration in agarose gel) (plasmid DNA (pDNA)) | ability to activate hTLR7 (human TLR7)
1 | CCCCCCCCCCCCCCCC(=O)OCC(CSC[C@H](N)C(=O)N[C@@H](CO)C(=O)N[C@@H](CCCCN)C(=O)N[C@@H](CCCCN)C(=O)N[C@@H](CCCCNC(=O)c1ccc(Cn2c(O)nc3c(N)nc(NCCCC)nc32)cc1)C(=O)N[C@@H](CCCCN)C(=O)O)OC(=O)CCCCCCCCCCCCCCC (stereo partly drawn) [CL530, (2S,5S,8S,11S,14S,17R)-17-amino-5-(4-(4-((6-amino-2-(butylamino)-8-hydroxy-9H-purin-9-yl)methyl)benzamido)butyl)-2,8,11-tris(4-aminobutyl)-14-(hydroxymethyl)-4,7,10,13,16,24-hexaoxo-21-(palmitoyloxy)-23-oxa-19-thia-3,6,9,12,15-pentaaza nonatriacontan-1-oic acid] | activate endogenous TLR2 and TLR7 | activate mTLR7 | activate hTLR2 | inability to migrate through an agarose gel | activate hTLR7
2 | CCCCCCCCCCCCCCCC(=O)OCC(CSC[C@H](N)C(=O)N[C@@H](CO)C(=O)N[C@@H](CCCCN)C(=O)N[C@@H](CCCCNC(=O)c1ccc(Cn2c(O)nc3c(N)nc(NCCCC)nc32)cc1)C(=O)N[C@@H](CCCCN)C(=O)N[C@@H](CCCCN)C(=O)O)OC(=O)CCCCCCCCCCCCCCC (stereo partly drawn) [CL531, (2S,5S,8S,11S,14S,17R)-17-amino-8-(4-(4-((6-amino-2-(butylamino)-8-hydroxy-9H-purin-9-yl)methyl)benzamido)butyl)-2,5,11-tris(4-aminobutyl)-14-(hydroxymethyl)-4,7,10,13,16,24-hexaoxo-21-(palmitoyloxy)-23-oxa-19-thia-3,6,9,12,15-pentaaza nonatriacontan-1-oic acid] | activate endogenous TLR2 and TLR7 | activate mTLR7 | activate hTLR2 | inability to migrate through an agarose gel | activate hTLR7
3 | CCCCCCCCCCCCCCCC(=O)OCC(CSC[C@H](N)C(=O)N[C@@H](CO)C(=O)N[C@@H](CCCCNC(=O)c1ccc(Cn2c(O)nc3c(N)nc(NCCCC)nc32)cc1)C(=O)N[C@@H](CCCCN)C(=O)N[C@@H](CCCCN)C(=O)N[C@@H](CCCCN)C(=O)O)OC(=O)CCCCCCCCCCCCCCC (stereo partly drawn) [CL533, (2S,5S,8S,11S,14S,17R)-17-amino-11-(4-(4-((6-amino-2-(butylamino)-8-hydroxy-9H-purin-9-yl)methyl)benzamido)butyl)-2,5,8-tris(4-aminobutyl)-14-(hydroxylmethyl)-4,7,10,13,16,24-hexaoxo-21-(palmitoyloxy)-23-oxa-19-thia-3,6,9,12,15-pentaazanonatria contan-1-oic acid] | activate endogenous TLR2 and TLR7 | activate mTLR7 | activate hTLR2 | inability to migrate through an agarose gel | activate hTLR7
4 | CCCCCCCCCCCCCCCC(=O)N[C@@H](CSCC(COC(=O)CCCCCCCCCCCCCCC)OC(=O)CCCCCCCCCCCCCCC)C(=O)N[C@@H](CO)C(=O)N[C@@H](CCCCN)C(=O)N[C@@H](CCCCN)C(=O)N[C@@H](CCCCNC(=O)c1ccc(Cn2c(O)nc3c(N)nc(NCCCC)nc32)cc1)C(=O)N[C@@H](CCCCN)C(=O)O (stereo partly drawn) [CL535, (2S,5S,8S,11S,14S,17R)-5-(4-(4-((6-amino-2-(butylamino)-8-hydroxy-9H-purin-9-yl)methyl)benzamido)butyl)-2,8,11-tris(4-aminobutyl)-14-(hydroxymethyl)-4,7,10,13,16,24-hexaoxo-17-palmitamido-21-(palmitoyloxy)-23-oxa-19-thia-3,6,9,12,15-pentaazanonatriacontan-1-oic acid] | activate endogenous TLR2 and TLR7 | activate mTLR7 | activate hTLR2 | inability to migrate through an agarose gel | activate hTLR7
